In assay [1] the test system is IκBα (NF-κB activation) in A549 cells. In words: Western blot of IκBα phosphorylation and degradation (NF-κB activation) in A549 cells. It is filed as cell-based, human. As to conditions: loxoribine 10 μg/ml or Poly U 10 μg/ml. On the procedure:
FIG. 3 TLR7 and TLR8 lead to IκBα phosphorylation, but not degradation. A549 cells were untreated or treated with TNF-α (10 ng/ml) (A, B), loxoribine (10 μg/ml) (C, D), or Poly U (10 μg/ml) (E, F) for the indicated periods of time. The cell lysates were analyzed by immunoblot with anti-phospho-specific IκBα, anti-IκBα and anti-actin antibodies (A, C, E). Quantification of the bands was realized using Image J software (B, D, F). Histograms represent the intensity of each band observed in the blots at the indicated time point and are expressed in arbitrary units normalized to actin intensity (relative intensity) both for phospho-IκBα and IκBα. Results are representative of three independent experiments.
A549 cells (1.10^6 cells) were starved for 4 hours in medium containing 2% FCS, and then stimulated with loxoribine, PolyU, or TNFα (10 ng/ml) for different periods of time as indicated. Cells were lysed in 50 mM Tris-HCl, pH 7.5, 150 mM NaCl, 2 mM EDTA, 0.5% triton X100, 2 mM Na3VO4, 10 mM NaF, and 10 mM sodium pyrophosphate supplemented with a complete protease inhibitor cocktail (Boehringer, Paris, France). Protein contents in the cell lysates were quantified using the quick start Bradford protein assay kit (Biorad, Marnes-La-Coquette, France) to ensure that all samples contained similar amounts of protein. Proteins (30 μg) were resolved in 10% Tris-glycine polyacrylamide gels (Invitrogen, Cergy Pontoise, France) and transferred to PVDF immobilon-P membranes (Millipore, Molsheim, France). Blots were probed with monoclonal antibody against phospho-IκBα (Cell Signaling Technology, Danvers, USA), total IκBα, and actin (Santa Cruz, Le Perray en Yvelines, France).
In order to determine if the TLR7 and 8 expressed by lung tumor cell lines were able to induce intracellular signaling pathways, we studied NF-κB activation in response to stimulation with TNFα, loxoribine (homodimeric TLR7 ligand), or Poly U (homodimeric TLR8 ligand). […] In contrast TLR7 or 8 stimulation led to atypical NF-κB activation. […] Furthermore, we also observed that the kinetics of IκBα phosphorylation were dependent on the stimulus. On the one hand, TNFα stimulation induced two waves of IκBα phosphorylation; the first one after ten minutes was associated with IκBα degradation, and the second one after sixty minutes was not associated with IκBα degradation. On the other hand, we observed that TLR stimulation induced only a phosphorylation of IκBα, with a maximum phosphorylation obtained after thirty minutes without degradation of IκBα.

The test system of assay [2] is 1549, H1355 and SK-MES cells. In words: Chemoresistance by colony formation assay. It counts as cell-based, human. As to conditions: stimulated with Loxoribine 100 μM and/or polyU 10 μg/ml on days 0, 3, 6, 9. The protocol:
Alternatively, chemoresistance was assessed by the colony formation assay. In this assay, 1549, H1355 and SK-MES cells were seeded in 6-well plates (500 cells per well) and incubated for 15 days at 37° under 5% CO2. The cells were left unstimulated or stimulated 100 μM Loxoribine or with 10 μg/ml single-stranded polyU RNA (InvivoGen) on days 0, 3, 6 and 9. On day 12, different anti-cancer agents were added at the respective LD50 (cisplatin and carboplatin 100 μM, navelbine 50 μM, doxorubicine 2 nM). On day 15, the wells ware washed with PBS, and stained with 6% (vol/vol) glutaraldehyde, 0.5% (wt/vol) crystal violet in water for 30 minutes. The cells were washed and the colonies of more than 50 cells counted. Cell survival was calculated as follows: number of colonies after chemotherapy/number of cells seeded on day 0×plating efficiency, where the plating efficiency is number of colonies/number of cells seeded.

For another assay, the system named is A549 cells. Kind of assay: A549 xenograft in NOD/SCID mice. It is filed as in vivo.

Regarding `C=CCn1c(=O)n([C@@H]2O[C@H](CO)[C@@H](O)[C@H]2O)c2nc(N)[nH]c(=O)c21` [loxoribine, 7-allyl-7,8-dihydro-8-oxo-guanosine], the “time at which IκBα was phosphorylated (maximum phosphorylation)” value in assay [1] is “thirty”. Further, the “resistance of colonies to combined anti-cancer agents” value in assay [2] is “more resistant to treatment with combined anti-cancer agents”. Moreover, the “tumor volume by week 14” value in the assay with A549 cells (A549 cells pre-stimulated 100 μM, 100 nmol into tumor site days 0, 3, 6, 9, control group 4 cm^3) is 8 cm^3. Further, the metastases at autopsy entry in the assay with A549 cells (Loxoribine mice versus control mice) was “more ganglionic and pulmonary metastases than control mice”. Also, the “time of 50% mortality” value with A549 cells (Loxoribine mice, NS mice towards week 17) was roughly 15 week. Besides, the “tumor volume seven weeks after injection of tumor cells” value in the assay on A549 cells (PBS-treated Loxoribine pre-stimulated group, PBS-treated NS group 1.9 cm^3) worked out at 5.3 cm^3. Besides, the “tumor volume ratio, Loxoribine pre-stimulated versus NS group” value in the assay with A549 cells (PBS-treated, seven weeks after injection) came to 2.5 times.
With Poly U, in assay [1], the “time at which IκBα was phosphorylated (maximum phosphorylation)” value is “thirty”. The “resistance of colonies to combined anti-cancer agents” value in assay [2] is “more resistant to treatment with combined anti-cancer agents”.

(Values after US8772243B2, “Methods for predicting the response to anti-cancer treatment with an agonist of TLR7 or an agonist of TLR8” (Inserm (Institut National de la Sante et de la Recherche …, priority 2008, dated 2014).)
